Measured values: ChEMBL document CHEMBL3885861, “Open TG-GATES”

Organism: Rattus norvegicus
Test: Open TG-GATES - Regimen: Daily Repeat
Format: toxicity, organism-based, Sprague-Dawley
Set-up: regimen Daily Repeat, gender Male, age 6 weeks
Details: in vivo, po, 300 mg/kg, route gavage, dose level High; for APTT / Bas / Eos / Fbg / Hb / Ht / Lym / MCH / MCHC / MCV / Mono / Neu / PT / Plat / RBC / Ret / WBC: tissue Blood; for KIDNEY_L / KIDNEY_R / KIDNEY_TOTAL: tissue Kidney; for LIVER: tissue Liver; for A/G / ALP / ALT / AST / BUN / CRE / Ca / Cl / DBIL / GLC / IP / K / LDH / Na / PL / RALB / TBIL / TC / TG / TP / gamma-GTP: tissue Plasma

## Brc1ccccc1 [BROMOBENZENE]
72 h, time 3 day
  TERMINAL_BW: 204.3 g
  APTT: 21.2 s
  Bas: 0.6%
  Eos: 1%
  Fbg: 259.2 mg/dL
  Hb: 13.1 g/dL
  Ht: 38.3%
  Lym: 78.4%
  MCH: 21.2 pg
  MCHC: 34.2%
  MCV: 62.1 fL
  Mono: 3%
  Neu: 16.4%
  PT: 12 s
  Plat: 109.8 x10_4/uL
  RBC: 616.6 x10_4/ul
  Ret: 4.2%
  WBC: 105.2 x10_2/uL
  KIDNEY_L: 0.9 g
  KIDNEY_R: 0.9 g
  KIDNEY_TOTAL: 1.8 g
  LIVER: 12 g
  A/G: 0.9
  ALP: 1821.4 IU/L
  ALT: 70.8 IU/L
  AST: 110.6 IU/L
  BUN: 12.4 mg/dL
  CRE: 0.2 mg/dL
  Ca: 10.5 mg/dL
  Cl: 104.8 meq/L
  DBIL: 0.02 mg/dL
  GLC: 177.6 mg/dL
  IP: 7 mg/dL
  K: 4.1 meq/L
  LDH: 124.2 IU/L
  Na: 141.8 meq/L
  PL: 184.6 mg/dL
  RALB: 2.6 g/dL
  TBIL: 0.08 mg/dL
  TC: 96.4 mg/dL
  TG: 88.4 mg/dL
  TP: 5.4 g/dL
  gamma-GTP: 1.4 IU/L
[…], time 7 day
  TERMINAL_BW: 239.4 g
  APTT: 17.1 s
  Bas: 0%
  Eos: 0.6%
  Fbg: 278.2 mg/dL
  Hb: 12.6 g/dL
  Ht: 36.8%
  Lym: 74.4%
  MCH: 21.3 pg
  MCHC: 34.3%
  MCV: 62.3 fL
  Mono: 3.2%
  Neu: 21.4%
  PT: 12.4 s
  Plat: 117.3 x10_4/uL
  RBC: 591.2 x10_4/ul
  Ret: 6.9%
  WBC: 101.2 x10_2/uL
  KIDNEY_L: 1 g
  KIDNEY_R: 1 g
  KIDNEY_TOTAL: 2 g
  LIVER: 13.4 g
  A/G: 0.9
  ALP: 1637 IU/L
  ALT: 44 IU/L
  AST: 65.2 IU/L
  BUN: 12.8 mg/dL
  CRE: 0.2 mg/dL
  Ca: 11.3 mg/dL
  Cl: 105.6 meq/L
  DBIL: 0.012 mg/dL
  GLC: 187.4 mg/dL
  IP: 7 mg/dL
  K: 4 meq/L
  LDH: 99.6 IU/L
  Na: 144.2 meq/L
  PL: 171.2 mg/dL
  RALB: 2.8 g/dL
  TBIL: 0.052 mg/dL
  TC: 88 mg/dL
  TG: 94.8 mg/dL
  TP: 6 g/dL
  gamma-GTP: 1 IU/L
[…], time 14 day
  TERMINAL_BW: 287 g
  APTT: 18.6 s
  Bas: 0%
  Eos: 0.6%
  Fbg: 288.4 mg/dL
  Hb: 13.4 g/dL
  Ht: 39.2%
  Lym: 78.4%
  MCH: 20.3 pg
  MCHC: 34.1%
  MCV: 59.5 fL
  Mono: 2.6%
  Neu: 17.8%
  PT: 12.2 s
  Plat: 118 x10_4/uL
  RBC: 658 x10_4/ul
  Ret: 5.1%
  WBC: 106.3 x10_2/uL
  KIDNEY_L: 1.1 g
  KIDNEY_R: 1.1 g
  KIDNEY_TOTAL: 2.2 g
  LIVER: 15.2 g
  A/G: 0.8
  ALP: 1442.4 IU/L
  ALT: 45.8 IU/L
  AST: 69.4 IU/L
  BUN: 15 mg/dL
  CRE: 0.2 mg/dL
  Ca: 10.8 mg/dL
  Cl: 106.4 meq/L
  DBIL: 0.01 mg/dL
  GLC: 185.2 mg/dL
  IP: 6.4 mg/dL
  K: 4 meq/L
  LDH: 63.2 IU/L
  Na: 144 meq/L
  PL: 180.4 mg/dL
  RALB: 2.8 g/dL
  TBIL: 0.04 mg/dL
  TC: 89.4 mg/dL
  TG: 123.2 mg/dL
  TP: 6.1 g/dL
  gamma-GTP: 1.2 IU/L
[…], time 28 day
  TERMINAL_BW: 359.9 g
  APTT: 18.2 s
  Bas: 0%
  Eos: 1%
  Fbg: 295.8 mg/dL
  Hb: 14.6 g/dL
  Ht: 42.5%
  Lym: 73.2%
  MCH: 19.1 pg
  MCHC: 34.4%
  MCV: 55.5 fL
  Mono: 2.6%
  Neu: 23%
  PT: 12.7 s
  Plat: 96.5 x10_4/uL
  RBC: 765 x10_4/ul
  Ret: 2.5%
  WBC: 120.7 x10_2/uL
  KIDNEY_L: 1.5 g
  KIDNEY_R: 1.5 g
  KIDNEY_TOTAL: 2.9 g
  LIVER: 17.7 g
  A/G: 0.8
  ALP: 1183.4 IU/L
  ALT: 42.8 IU/L
  AST: 65.4 IU/L
  BUN: 15.2 mg/dL
  CRE: 0.2 mg/dL
  Ca: 10.4 mg/dL
  Cl: 106.8 meq/L
  DBIL: 0.022 mg/dL
  GLC: 185.2 mg/dL
  IP: 5.6 mg/dL
  K: 4 meq/L
  LDH: 73 IU/L
  Na: 143.4 meq/L
  PL: 165.4 mg/dL
  RALB: 2.7 g/dL
  TBIL: 0.048 mg/dL
  TC: 79.8 mg/dL
  TG: 154.2 mg/dL
  TP: 6.2 g/dL
  gamma-GTP: 1.2 IU/L
